Measured values reported in patent US9393313B2, “Drug entrapment efficiency and sustained drug release of chloramphenicol loaded polymeric-iron nanoparticles” (priority 2014, dated 2016).

Tests used:
[1] = system: Gram positive Streptococci; assay: Anti-bacterial activity, agar well zone of inhibition; assay type: cell-based; settings: 50 μL of 5 mg/mL suspension in 0.4 cm wells, 37° C. for 48 hours
Description: (§1) Nutrient broth was prepared by dissolving 0.2 g in 25 mL distilled water in erlenmeyer flask. The flask was then sterilized in an autoclave at the 121° C. for 15 minutes after applying cotton plug to cover its mouth. This growth media was utilized to prepare inoculums of all strains of bacteria. After adding a loop full of bacterial strain in it, the flask was placed in shaking incubator at 37° C. for the night. The plates were inoculated after the incubated broth was diluted up to 10^−2.
(§2) 0.8 g nutrient broth and 2 g of agar were added to 100 mL autoclaved water in an erlenmeyer flask. Apply cotton plug to the flask and then sterilize it in an autoclave at the 121° C. for 15 minutes. Each petri plate was poured with 15-20 mL of agar which was then solidified and inoculated with the bacterial strain. 50 μL of sample suspension was poured in wells that have the diameter of 0.4 cm. All sample suspensions were made by adding 5 mg of product in 1 mL distilled water. Zones of inhibition were observed after keeping these plates at 37° C. for 48 hours.

[2] = system: Gram positive cocci (Separate); assay: as above; assay type: cell-based; settings: 48 h
Description: as §1, §2

Gram positive sarccina = assay: as above; assay type: cell-based; settings: 50 μL of 5 mg/mL suspension in 0.4 cm wells, 37° C. for 48 hours
Description: as §1, §2

[3] = In-vitro drug release / drug entrapment efficiency in PBS by UV spectroscopy at 278 nm; assay type: physicochemical
Description: 30 mg of CHL-loaded nanoparticles were dispersed and homogenized in 100 mL of PBS, pH 7.4 (purchased from Sigma Aldrich) which releases all entrapped CHL from the nanocomposite. Before homogenization, nanocomposite formulation was cleared from free drug molecules by washing with distilled water. Ultraviolet (UV) spectroscopy at a wavelength of 278 nm was employed for completely developing entire content of entrapped chloramphenicol in triplicates. A solution of drug-free nanocomposite (30 mg) in distilled water was employed as a reference, thus reducing the chances of interference by excipients and polymer used to prepare the nanocomposite. Following equation was utilized to evaluate drug entrapment efficiency (DEE) value, as was reported in a paper by Harilall S, Choonara Y E. et al. %DEE=D1/D2*100 Where D1 is the actual quantity of drug (mg/100 mL) and D2 is the theoretical quantity of drug (mg/100 mL) entrapped within the formulation. Precision of the results was made certain by calculating the average DEE of five samples.
An in-vitro drug release study was conducted on the basis of a paper reported by Harilall S, Choonara Y E. et al. for the zidovudine release study. CHL-loaded nanocomposite, nanocomposite and commercially available CHL were submerged in 100 mL PBS discretely and then sited these set of preparations in an orbital shaking incubator (20 rpms, 37° C.). Portions of these preparations were taken at altered time interims for 48 hours and substituted by equal quantities of buffer solution and were evaluated by UV spectroscopy for CHL absorption at a wavelength of 278 nm.

Compound `O=C(N[C@H](CO)[C@H](O)c1ccc([N+](=O)[O-])cc1)C(Cl)Cl` [CHL, chloramphenicol] has a zone of inhibition at 5000 µg/mL [1] of 6 mm, a zone of inhibition at 5000 µg/mL [2] of 4 mm and a zone of inhibition at 5000 µg/mL (Gram positive sarccina) of 2 mm. The “Time in which almost the whole drug is released” value ([3]; PBS) was 3 to 4 h, the “DEE (FIG. 7, in-vitro drug release)” value ([3]; first hour of exposure to PBS, 37° C.) was 91% and the “DEE (FIG. 7, in-vitro drug release)” value ([3]; fourth hour in PBS (third of the next three hours)) was 97%. The “DEE (FIG. 7, in-vitro drug release)” value ([3]; second hour in PBS (first of the next three hours)) was 94% and the “DEE (FIG. 7, in-vitro drug release)” value ([3]; third hour in PBS (second of the next three hours)) was 97%.
